18 compounds from patent publication US8314117B2, “CGRP receptor antagonists” (Bristol-Myers Squibb Company, priority 2009, dated 2012) can be followed below.

The structures appear in SMILES notation. pIC50: −log10 of the molar value.

The target in this experiment is T1, Human CGRP Receptor (Homo sapiens, UniProt O60894+Q16602).
T1 construct: Crude membranes were prepared from SK-N-MC cells expressing CGRP receptors; endogenous in cells; host or cells: SK-N-MC cells (crude membranes)
T1 sequence (Q16602 23-461): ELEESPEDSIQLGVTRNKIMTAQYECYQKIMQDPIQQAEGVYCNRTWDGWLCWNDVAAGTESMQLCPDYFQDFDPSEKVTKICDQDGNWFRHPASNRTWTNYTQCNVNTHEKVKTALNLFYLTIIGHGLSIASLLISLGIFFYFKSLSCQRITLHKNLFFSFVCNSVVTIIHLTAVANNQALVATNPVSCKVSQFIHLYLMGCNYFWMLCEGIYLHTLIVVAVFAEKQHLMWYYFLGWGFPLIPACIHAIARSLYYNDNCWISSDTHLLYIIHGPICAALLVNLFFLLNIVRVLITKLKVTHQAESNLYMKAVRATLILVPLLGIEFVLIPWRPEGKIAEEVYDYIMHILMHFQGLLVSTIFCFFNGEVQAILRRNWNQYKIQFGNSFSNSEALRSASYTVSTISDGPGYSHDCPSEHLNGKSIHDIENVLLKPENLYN
T1 sequence (O60894 27-148): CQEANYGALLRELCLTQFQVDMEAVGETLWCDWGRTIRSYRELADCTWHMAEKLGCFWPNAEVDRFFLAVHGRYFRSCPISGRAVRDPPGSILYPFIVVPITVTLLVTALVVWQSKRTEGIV
In words: Radioligand binding assay, [125I]-CGRP displacement from SK-N-MC cell membranes. The note with it: SK-N-MC membranes (7 μg/well); [125I]-CGRP final 18 pM; room temperature 2 h; at least two separate experiments. On the procedure: Tissue Culture. SK-N-MC cells were grown at 37° C. in 5% CO2 as a monolayer in medium consisting of MEM with Earle's salts and L-glutamine (Invitrogen) supplemented with 10% fetal bovine serum (Invitrogen). Membrane Preparation. Crude membranes were prepared from SK-N-MC cells expressing CGRP receptors. The cells were rinsed twice with phosphate-buffered saline (155 mM NaCl, 3.3 mM Na2HPO4, 1.1 mM […]4, pH 7.4), and incubated for 5-10 min. at 4° C. in hypotonic lysis buffer consisting of 10 mM Tris (pH 7.4) and 5 mM EDTA. […] Homogenates were centrifuged at 32,000×g for 30 min. The pellets were resuspended in cold hypotonic lysis buffer with 0.1% mammalian protease inhibitor cocktail (Sigma) and assayed for protein concentration. The SK-N-MC homogenate was aliquoted and stored at -80° C. Radioligand Binding Assay. The compounds of invention were solubilized and carried through serial dilutions using 100% DMSO. […] [^125I]-CGRP (GE Healthcare or Perkin-Elmer) was diluted to […] in assay buffer and a volume of 50 μl was added to each well. SK-N-MC membranes were thawed, diluted in assay buffer with fresh 0.1% mammalian protease inhibitor cocktail (Sigma), and re-homogenized. SK-N-MC homogenate (7 μg/well) was added in a volume of 100 μl. The assay plates were then incubated at room temperature for 2 h. […] Protein bound radioactivity was determined using a gamma or scintillation counter. […] Final assay concentration of [^125I]-CGRP was 18 pM. […] All compounds of invention were evaluated in at least two separate experiments.
Broadly, the pIC50 is −log10 of the IC50, conventionally taken in molar units. Low readings indicate a large IC50, high ones a small IC50. In turn, `O=C(O[C@@H]1CC[C@H](c2cccc(F)c2F)[C@H](O)c2cccnc21)N1CCC(n2c(=O)[nH]c3ncccc32)CC1` [Example 6, (5S,6R,9R)-6-(2,3-difluorophenyl)-5-hydroxy-6,7,8,9-tetrahydro-5H-cyclohepta[b]pyridin-9-yl 4-(2-oxo-2,3-dihydro-1H-imidazo[4,5-b]pyridin-1-yl)piperidine-1-carboxylate] had a pIC50 of 8.07. With `O=C(O[C@@H]1CC[C@@H](c2cc(F)cc(F)c2)[C@H](O)c2cccnc21)N1CCC(n2c(=O)[nH]c3ncccc32)CC1` [Example 11, (5S,6S,9R)-6-(3,5-difluorophenyl)-5-hydroxy-6,7,8,9-tetrahydro-5H-cyclohepta[b]pyridin-9-yl 4-(2-oxo-2,3-dihydro-1H-imidazo[4,5-b]pyridin-1-yl)piperidine-1-carboxylate] the figure was 9.05. `O=C(O[C@@H]1CC[C@@H](c2cccc(F)c2F)/C(=N/O)c2cccnc21)N1CCC(n2c(=O)[nH]c3ncccc32)CC1` [Example 15, (6S,9R,Z)-6-(2,3-difluorophenyl)-5-(hydroxyimino)-6,7,8,9-tetrahydro-5H-cyclohepta[b]pyridin-9-yl 4-(2-oxo-2,3-dihydro-1H-imidazo[4,5-b]pyridin-1-yl)piperidine-1-carboxylate]: the pIC50 is 7.55. Compared with the last compound, the pIC50 is 1.50 log units lower. The same measure for `O=C1c2cccnc2[C@H](OC(=O)N2CCC(n3c(=O)[nH]c4ncccc43)CC2)CCC1c1cccc(F)c1F` (mixture of isomers) [Example 2, (9R)-6-(2,3-difluorophenyl)-5-oxo-6,7,8,9-tetrahydro-5H-cyclohepta[b]pyridin-9-yl 4-(2-oxo-2,3-dihydro-1H-imidazo[4,5-b]pyridin-1-yl)piperidine-1-carboxylate]: 7.55.

Consider `O=C(O[C@@H]1CC[C@@](O)(c2cccc(F)c2F)[C@@H](O)c2cccnc21)N1CCC(n2c(=O)[nH]c3ncccc32)CC1` (single isomer, unassigned) [Example 3], for which the pIC50 was 6.30. Against the preceding compound, the pIC50 is 1.25 log units lower. With `O=C(O[C@@H]1CCC(c2cccc(F)c2F)C(O)c2cccnc21)N1CCC(n2c(=O)[nH]c3ncccc32)CC1` (single isomer, unassigned) [Example 5] the figure was 8.89. `N[C@@H]1c2cccnc2[C@H](OC(=O)N2CCC(n3c(=O)[nH]c4ncccc43)CC2)CC[C@H]1c1cc(F)cc(F)c1` [Example 10, (5S,6S,9R)-5-amino-6-(3,5-difluorophenyl)-6,7,8,9-tetrahydro-5H-cyclohepta[b]pyridin-9-yl 4-(2-oxo-2,3-dihydro-1H-imidazo[4,5-b]pyridin-1-yl)piperidine-1-carboxylate]: the pIC50 is 9.70. Against the preceding compound, the pIC50 is 0.81 log units higher. `CN[C@@H]1c2cccnc2[C@H](OC(=O)N2CCC(n3c(=O)[nH]c4ncccc43)CC2)CC[C@H]1c1cccc(F)c1F` [Example 13, (5S,6S,9R)-6-(2,3-difluorophenyl)-5-(methylamino)-6,7,8,9-tetrahydro-5H-cyclohepta[b]pyridin-9-yl 4-(2-oxo-2,3-dihydro-1H-imidazo[4,5-b]pyridin-1-yl)piperidine-1-carboxylate] showed a negative logarithm of the IC50 (pIC50) of 9.72.

With `O=C(O[C@@H]1CC[C@@](O)(c2cccc(F)c2F)C(=O)c2cccnc21)N1CCC(n2c(=O)[nH]c3ncccc32)CC1` (single isomer, unassigned) [Example 1], the pIC50 was 6.39. Compared with the last compound, the pIC50 is 3.33 log units lower. Compound `N[C@@H]1c2cccnc2[C@H](NC(=O)N2CCC(n3c(=O)[nH]c4ncccc43)CC2)CC[C@H]1c1cccc(F)c1F` [Example 18] had a pIC50 of 9.10. Take `N[C@@H]1c2cccnc2[C@H](OC(=O)N2CCC(n3c(=O)[nH]c4ncccc43)CC2)CC[C@H]1c1cccc(F)c1F` [Example 8, (5S,6S,9R)-5-amino-6-(2,3-difluorophenyl)-6,7,8,9-tetrahydro-5H-cyclohepta[b]pyridin-9-yl 4-(2-oxo-2,3-dihydro-1H-imidazo[4,5-b]pyridin-1-yl)piperidine-1-carboxylate]: the pIC50 was 10.40. Against the preceding compound, the pIC50 is 1.30 log units higher. With `N[C@@H]1c2cccnc2[C@@H](CC(=O)N2CCC(n3c(=O)[nH]c4ncccc43)CC2)CC[C@H]1c1cccc(F)c1F` [Example 21, 1-(1-(2-((5S,6S,9R)-5-amino-6-(2,3-difluorophenyl)-6,7,8,9-tetrahydro-5H-cyclohepta[b]pyridin-9-yl)acetyl)piperidin-4-yl)-1H-imidazo[4,5-b]pyridin-2(3H)-one] the figure was below 6.00. With `CN(C)[C@@H]1c2cccnc2[C@H](OC(=O)N2CCC(n3c(=O)[nH]c4ncccc43)CC2)CC[C@H]1c1cccc(F)c1F` [Example 14, (5S,6S,9R)-6-(2,3-difluorophenyl)-5-(dimethylamino)-6,7,8,9-tetrahydro-5H-cyclohepta[b]pyridin-9-yl 4-(2-oxo-2,3-dihydro-1H-imidazo[4,5-b]pyridin-1-yl)piperidine-1-carboxylate] the figure was 8.70; with `N[C@@H]1c2cccnc2[C@H](OC(=O)Nc2ccc3c(c2)CC2(C3)C(=O)Nc3ncccc32)CC[C@H]1c1cccc(F)c1F` (stereo partly drawn) [Example 17, (5S,6S,9R)-5-amino-6-(2,3-difluorophenyl)-6,7,8,9-tetrahydro-5H-cyclohepta[b]pyridin-9-yl 2′-oxo-1,1′,2′,3-tetrahydrospiro[indene-2,3′-pyrrolo[2,3-b]pyridine]-5-ylcarbamate], 8.92; with `[N-]=[N+]=N[C@@H]1c2cccnc2[C@H](OC(=O)N2CCC(n3c(=O)[nH]c4ncccc43)CC2)CC[C@H]1c1cccc(F)c1F` [Example 7, (5S,6S,9R)-5-azido-6-(2,3-difluorophenyl)-6,7,8,9-tetrahydro-5H-cyclohepta[b]pyridin-9-yl 4-(2-oxo-2,3-dihydro-1H-imidazo[4,5-b]pyridin-1-yl)piperidine-1-carboxylate], 9.89. With `O=C(O[C@@H]1CC[C@@H](c2cccc(F)c2F)[C@H](O)c2cccnc21)N1CCC(n2c(=O)[nH]c3ncccc32)CC1` [Example 4, (5S,6S,9R)-6-(2,3-difluorophenyl)-5-hydroxy-6,7,8,9-tetrahydro-5H-cyclohepta[b]pyridin-9-yl 4-(2-oxo-2,3-dihydro-1H-imidazo[4,5-b]pyridin-1-yl)piperidine-1-carboxylate], the pIC50 is 9.80.

`O=C(O[C@H]1c2ncccc2C[C@H](c2cccc(F)c2F)C[C@H]1O)N1CCC(n2c(=O)[nH]c3ncccc32)CC1` [Example 12, (6S,8R,9S)-6-(2,3-difluorophenyl)-8-hydroxy-6,7,8,9-tetrahydro-5H-cyclohepta[b]pyridin-9-yl 4-(2-oxo-2,3-dihydro-1H-imidazo[4,5-b]pyridin-1-yl)piperidine-1-carboxylate] showed a pIC50 of 7.92. The same measure for `O=C(O[C@@H]1CC[C@@H](c2cccc(F)c2F)/C(=N\O)c2cccnc21)N1CCC(n2c(=O)[nH]c3ncccc32)CC1` [Example 16, (6S,9R,E)-6-(2,3-difluorophenyl)-5-(hydroxyimino)-6,7,8,9-tetrahydro-5H-cyclohepta[b]pyridin-9-yl 4-(2-oxo-2,3-dihydro-1H-imidazo[4,5-b]pyridin-1-yl)piperidine-1-carboxylate]: 7.40.
